Experimental data from ChEMBL document CHEMBL2203208, “Synthesis and structure-activity relationships of dual PI3K/mTOR inhibitors based on a 4-amino-6-methyl-1,3,5-triazine sulfonamide scaffold” (Bioorg Med Chem Lett, 2012).
≈ marks a conversion by molar mass, not a printed value.

Experiments:
physchem [1] = conditions: simulated intestinal fluid
Description: Equilibrium solubility of the compound in simulated intestinal fluid after 48 to 72 hrs

physchem [2] = conditions: 0.01N HCl
Description: Equilibrium solubility of the compound in 0.01N HCl after 48 to 72 hrs

physchem [3] = conditions: phosphate buffered saline
Description: Equilibrium solubility of the compound in phosphate buffered saline after 48 to 72 hrs

in vivo [4] = conditions: Sprague-Dawley, rat, iv, 1 mg/kg
Description: (§1) Mean residence time in Sprague-Dawley rat at 1 mg/kg, iv

Rattus norvegicus [5] = species on record: Rattus norvegicus; conditions: in vivo, po, 2 mg/kg
[6] = biological target: Phosphatidylinositol 4,5-bisphosphate 3-kinase catalytic subunit alpha isoform (Homo sapiens, UniProt P42336)
Chain of Phosphatidylinositol 4,5-bisphosphate 3-kinase catalytic subunit alpha isoform (P42336 whole entry, canonical isoform): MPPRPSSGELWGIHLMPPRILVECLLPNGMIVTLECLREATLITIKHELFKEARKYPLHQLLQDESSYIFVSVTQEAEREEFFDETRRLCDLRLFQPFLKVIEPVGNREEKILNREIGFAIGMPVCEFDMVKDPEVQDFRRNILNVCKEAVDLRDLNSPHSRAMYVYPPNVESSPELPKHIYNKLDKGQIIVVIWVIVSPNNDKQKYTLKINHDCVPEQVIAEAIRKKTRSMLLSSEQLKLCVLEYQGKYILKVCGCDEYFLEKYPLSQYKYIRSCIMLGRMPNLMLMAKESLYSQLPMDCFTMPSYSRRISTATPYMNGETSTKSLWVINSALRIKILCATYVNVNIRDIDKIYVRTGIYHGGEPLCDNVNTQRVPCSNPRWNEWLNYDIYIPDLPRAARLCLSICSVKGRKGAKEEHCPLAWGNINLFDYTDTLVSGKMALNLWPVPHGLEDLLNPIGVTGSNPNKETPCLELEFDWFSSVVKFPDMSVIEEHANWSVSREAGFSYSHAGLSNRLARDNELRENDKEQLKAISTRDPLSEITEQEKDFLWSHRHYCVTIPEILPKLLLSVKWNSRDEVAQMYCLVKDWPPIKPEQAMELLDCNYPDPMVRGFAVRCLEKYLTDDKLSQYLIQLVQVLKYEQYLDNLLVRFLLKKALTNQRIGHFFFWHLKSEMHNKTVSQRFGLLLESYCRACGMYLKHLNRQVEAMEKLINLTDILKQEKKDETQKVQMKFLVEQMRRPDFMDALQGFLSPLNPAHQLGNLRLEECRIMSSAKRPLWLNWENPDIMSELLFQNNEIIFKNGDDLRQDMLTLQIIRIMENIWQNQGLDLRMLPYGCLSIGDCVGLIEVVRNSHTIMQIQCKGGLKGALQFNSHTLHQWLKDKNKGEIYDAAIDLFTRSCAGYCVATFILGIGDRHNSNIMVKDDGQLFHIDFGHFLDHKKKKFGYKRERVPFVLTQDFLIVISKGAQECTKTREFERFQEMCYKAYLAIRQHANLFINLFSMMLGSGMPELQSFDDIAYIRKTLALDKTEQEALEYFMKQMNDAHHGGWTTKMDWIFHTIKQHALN
Description: Inhibition of human N-terminal polyHis-tagged PI3K p110alpha expressed in baculovirus infected Hi5 cells using Phosphatidylinositol-4,5-bisphosphate as substrate after 20 mins by AlphaScreen assay

in vitro [7] = conditions: rat, liver microsomes
Description: Clearance in rat liver microsomes at 1 uM after 30 mins in presence of NADPH

in vivo [8] = conditions: Sprague-Dawley, rat, iv, 1 mg/kg; remark: listed apart in the source
Rattus norvegicus [9] = species on record: Rattus norvegicus; conditions: in vivo, po, 2 mg/kg; remark: listed apart in the source
Rattus norvegicus [10] = species on record: Rattus norvegicus; conditions: in vivo, iv, 1 mg/kg
Description: (§2) Clearance in Sprague-Dawley rat at 1 mg/kg, iv

in vitro [11] = conditions: human, liver microsomes
Description: Clearance in human liver microsomes at 1 uM after 30 mins in presence of NADPH

[12] = biological target: Serine/threonine-protein kinase mTOR (Homo sapiens, UniProt P42345)
Description: Inhibition of recombinant N-terminal GST-tagged mTOR using GFP-4EBP as substrate after 90 mins by TR-FRET assay

in vivo [13] = conditions: Sprague-Dawley, rat, plasma, po, 2 mg/kg
in vivo [14] = conditions: Sprague-Dawley, rat, iv, 1 mg/kg; remark: listed apart in the source
Description: as §2

in vivo [15] = conditions: Sprague-Dawley, rat, po, 2 mg/kg
[16] = biological target: T1, Phosphatidylinositol 4,5-bisphosphate 3-kinase catalytic subunit delta isoform (Homo sapiens, UniProt O00329)
T1 sequence (O00329 whole entry): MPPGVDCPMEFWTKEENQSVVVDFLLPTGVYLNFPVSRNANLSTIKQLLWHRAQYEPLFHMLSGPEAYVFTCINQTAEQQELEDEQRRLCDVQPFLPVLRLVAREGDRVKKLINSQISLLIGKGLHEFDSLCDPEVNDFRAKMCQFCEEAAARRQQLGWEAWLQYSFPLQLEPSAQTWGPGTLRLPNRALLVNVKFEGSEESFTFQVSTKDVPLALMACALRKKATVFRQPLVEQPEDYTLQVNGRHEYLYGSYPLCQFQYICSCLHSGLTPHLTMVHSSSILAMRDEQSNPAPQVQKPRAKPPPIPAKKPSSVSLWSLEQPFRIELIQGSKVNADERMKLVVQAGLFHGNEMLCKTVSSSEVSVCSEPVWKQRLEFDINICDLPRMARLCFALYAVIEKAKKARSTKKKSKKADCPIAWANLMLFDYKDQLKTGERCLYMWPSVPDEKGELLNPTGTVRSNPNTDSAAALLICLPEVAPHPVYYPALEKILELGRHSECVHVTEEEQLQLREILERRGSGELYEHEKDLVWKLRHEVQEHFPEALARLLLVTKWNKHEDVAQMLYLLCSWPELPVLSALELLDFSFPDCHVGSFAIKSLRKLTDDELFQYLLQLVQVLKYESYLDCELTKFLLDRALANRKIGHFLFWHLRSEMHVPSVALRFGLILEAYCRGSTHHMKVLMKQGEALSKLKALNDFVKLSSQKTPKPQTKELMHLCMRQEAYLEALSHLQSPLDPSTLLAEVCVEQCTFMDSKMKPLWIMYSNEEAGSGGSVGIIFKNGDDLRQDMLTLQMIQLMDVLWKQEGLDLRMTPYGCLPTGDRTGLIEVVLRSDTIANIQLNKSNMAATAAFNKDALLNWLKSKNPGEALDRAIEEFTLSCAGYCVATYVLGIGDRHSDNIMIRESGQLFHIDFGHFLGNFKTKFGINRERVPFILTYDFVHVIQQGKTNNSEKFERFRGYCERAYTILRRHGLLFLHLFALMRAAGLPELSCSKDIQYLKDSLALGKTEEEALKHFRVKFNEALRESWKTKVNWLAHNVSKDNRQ
Description: Inhibition of human N-terminal polyHis-tagged PI3K p110delta expressed in baculovirus infected Hi5 cells using Phosphatidylinositol-4,5-bisphosphate as substrate after 20 mins by AlphaScreen assay

[17] = biological target: Phosphatidylinositol 4,5-bisphosphate 3-kinase catalytic subunit gamma isoform (Homo sapiens, UniProt P48736); set-up: species or system BTI-TN-5B1-4
Chain of Phosphatidylinositol 4,5-bisphosphate 3-kinase catalytic subunit gamma isoform (P48736 whole entry, canonical isoform): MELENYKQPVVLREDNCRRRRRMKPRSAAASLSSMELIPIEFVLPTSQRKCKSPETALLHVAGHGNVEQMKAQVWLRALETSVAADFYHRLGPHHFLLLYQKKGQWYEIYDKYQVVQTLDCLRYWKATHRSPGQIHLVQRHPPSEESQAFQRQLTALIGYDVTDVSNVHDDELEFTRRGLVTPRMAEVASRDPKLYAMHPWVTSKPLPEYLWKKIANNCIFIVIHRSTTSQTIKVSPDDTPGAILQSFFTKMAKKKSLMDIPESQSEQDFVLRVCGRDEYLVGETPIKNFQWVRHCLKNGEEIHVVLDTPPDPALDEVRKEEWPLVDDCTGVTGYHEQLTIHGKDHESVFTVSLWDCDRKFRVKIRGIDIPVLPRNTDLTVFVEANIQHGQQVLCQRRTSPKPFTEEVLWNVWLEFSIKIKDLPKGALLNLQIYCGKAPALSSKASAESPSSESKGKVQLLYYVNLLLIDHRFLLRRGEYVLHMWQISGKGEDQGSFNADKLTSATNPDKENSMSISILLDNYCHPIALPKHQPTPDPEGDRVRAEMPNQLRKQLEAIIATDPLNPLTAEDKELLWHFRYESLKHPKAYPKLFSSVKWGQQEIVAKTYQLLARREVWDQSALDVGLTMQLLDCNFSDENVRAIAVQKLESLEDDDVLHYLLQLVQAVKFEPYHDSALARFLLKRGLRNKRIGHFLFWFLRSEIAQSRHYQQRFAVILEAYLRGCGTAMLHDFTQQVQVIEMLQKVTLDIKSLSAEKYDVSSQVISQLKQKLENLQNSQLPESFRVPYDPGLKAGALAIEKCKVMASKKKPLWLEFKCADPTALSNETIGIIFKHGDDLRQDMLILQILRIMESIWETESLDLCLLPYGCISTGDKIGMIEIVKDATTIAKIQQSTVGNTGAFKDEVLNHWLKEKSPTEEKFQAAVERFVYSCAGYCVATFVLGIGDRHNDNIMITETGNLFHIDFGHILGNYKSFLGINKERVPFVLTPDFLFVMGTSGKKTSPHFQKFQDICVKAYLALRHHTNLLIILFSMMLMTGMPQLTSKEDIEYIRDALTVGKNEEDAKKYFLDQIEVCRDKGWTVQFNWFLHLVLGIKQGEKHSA

[18] = biological target: Phosphatidylinositol 4,5-bisphosphate 3-kinase catalytic subunit beta isoform (Homo sapiens, UniProt P42338)
Chain of Phosphatidylinositol 4,5-bisphosphate 3-kinase catalytic subunit beta isoform (P42338 whole entry, canonical isoform): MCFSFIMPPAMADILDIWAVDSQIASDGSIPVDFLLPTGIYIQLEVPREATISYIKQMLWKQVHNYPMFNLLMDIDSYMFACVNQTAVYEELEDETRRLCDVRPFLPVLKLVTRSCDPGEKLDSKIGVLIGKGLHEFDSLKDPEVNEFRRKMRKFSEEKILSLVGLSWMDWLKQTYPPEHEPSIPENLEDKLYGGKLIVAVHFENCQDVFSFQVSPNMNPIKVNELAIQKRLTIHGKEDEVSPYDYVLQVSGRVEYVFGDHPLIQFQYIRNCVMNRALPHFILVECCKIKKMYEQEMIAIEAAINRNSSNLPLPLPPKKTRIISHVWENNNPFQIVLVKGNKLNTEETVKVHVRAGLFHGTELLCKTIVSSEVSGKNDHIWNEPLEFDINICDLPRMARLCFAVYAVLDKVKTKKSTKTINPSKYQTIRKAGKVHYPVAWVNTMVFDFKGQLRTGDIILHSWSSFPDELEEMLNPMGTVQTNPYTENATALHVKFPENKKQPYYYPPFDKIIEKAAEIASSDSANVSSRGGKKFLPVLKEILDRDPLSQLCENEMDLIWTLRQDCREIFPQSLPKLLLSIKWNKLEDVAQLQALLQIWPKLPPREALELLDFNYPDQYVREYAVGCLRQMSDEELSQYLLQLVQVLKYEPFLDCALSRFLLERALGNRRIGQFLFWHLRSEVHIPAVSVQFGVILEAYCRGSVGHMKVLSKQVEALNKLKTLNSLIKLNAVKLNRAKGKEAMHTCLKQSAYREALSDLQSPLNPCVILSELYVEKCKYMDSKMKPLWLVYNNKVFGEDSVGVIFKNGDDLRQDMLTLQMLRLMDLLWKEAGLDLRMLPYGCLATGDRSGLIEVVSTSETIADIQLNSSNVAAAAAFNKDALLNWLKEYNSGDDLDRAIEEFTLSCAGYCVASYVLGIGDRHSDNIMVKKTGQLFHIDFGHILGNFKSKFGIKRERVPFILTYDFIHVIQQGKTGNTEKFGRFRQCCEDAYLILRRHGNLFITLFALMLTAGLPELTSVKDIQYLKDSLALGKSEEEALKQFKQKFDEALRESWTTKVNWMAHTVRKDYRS
Description: Inhibition of human N-terminal polyHis-tagged PI3K p110beta expressed in baculovirus infected Hi5 cells using Phosphatidylinositol-4,5-bisphosphate as substrate after 20 mins by AlphaScreen assay

[19] = Plasma protein binding in rat; assay type: ADME, cell-free; conditions: read-out: PPB (converted)
[20] = Plasma protein binding in human; assay type: ADME, cell-free; conditions: read-out: PPB (converted)
human MDR1 = experiment: Permeability across pig LLC-PK1 cells expressing human MDR1; assay type: ADME, cell-based, Sus scrofa; conditions: read-out: permeability
[21] = Plasma protein binding in mouse; assay type: ADME, cell-free; conditions: read-out: PPB (converted)
[22] = Plasma protein binding in dog; assay type: ADME, cell-free, Canis lupus familiaris; conditions: read-out: PPB (converted)
rodent MDR1 = experiment: Permeability across pig LLC-PK1 cells expressing rodent MDR1; assay type: ADME, cell-based, Sus scrofa; conditions: read-out: permeability
Mus musculus [23] = species on record: Mus musculus; conditions: CD1, U-87MG ATCC
Description: Inhibition of PI3K-mediated AKT Ser473 phosphorylation in human U87MG cells xenografted in po dosed CD1 nu/nu mouse after 6 hrs

Mus musculus [24] = experiment: Inhibition of PI3K in human U87MG cells xenografted in po dosed CD1 nu/nu mouse assessed as plasma concentration required for inhibition of AKT ser473 phosphorylation after 6 hrs; assay type: functional, organism-based, U-87MG ATCC; conditions: CD1, U-87 MG
[25] = biological target: Phosphatidylinositol 3-kinase catalytic subunit type 3 (Homo sapiens, UniProt Q8NEB9); experiment: Inhibition of human VPS34 using phosphatidylinositol/phosphatidylserine as substrate after 30 mins by fluorescence-based immunoassay
Chain of Phosphatidylinositol 3-kinase catalytic subunit type 3 (Q8NEB9 whole entry): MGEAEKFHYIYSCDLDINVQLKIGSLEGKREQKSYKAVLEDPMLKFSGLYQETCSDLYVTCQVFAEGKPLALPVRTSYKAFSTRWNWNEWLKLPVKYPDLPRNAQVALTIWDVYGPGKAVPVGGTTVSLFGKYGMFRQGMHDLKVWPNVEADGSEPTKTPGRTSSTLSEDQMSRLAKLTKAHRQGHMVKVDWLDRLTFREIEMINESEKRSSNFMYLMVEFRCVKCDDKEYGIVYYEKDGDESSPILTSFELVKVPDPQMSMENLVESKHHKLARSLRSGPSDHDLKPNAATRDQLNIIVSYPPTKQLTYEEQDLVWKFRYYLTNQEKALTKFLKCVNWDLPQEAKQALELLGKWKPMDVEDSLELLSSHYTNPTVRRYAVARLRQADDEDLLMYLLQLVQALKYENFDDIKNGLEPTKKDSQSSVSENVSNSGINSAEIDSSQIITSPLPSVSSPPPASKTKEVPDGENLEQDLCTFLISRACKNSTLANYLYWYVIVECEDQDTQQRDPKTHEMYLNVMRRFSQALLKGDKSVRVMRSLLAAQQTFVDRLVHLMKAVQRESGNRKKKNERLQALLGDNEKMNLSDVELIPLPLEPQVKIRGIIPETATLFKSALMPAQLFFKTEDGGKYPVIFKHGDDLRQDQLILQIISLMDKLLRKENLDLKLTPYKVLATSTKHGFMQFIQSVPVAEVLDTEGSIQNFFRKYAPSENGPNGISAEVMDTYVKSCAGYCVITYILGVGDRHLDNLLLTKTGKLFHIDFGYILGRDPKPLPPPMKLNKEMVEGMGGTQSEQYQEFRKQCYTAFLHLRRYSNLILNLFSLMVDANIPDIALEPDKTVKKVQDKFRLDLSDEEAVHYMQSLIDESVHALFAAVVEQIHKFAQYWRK

[26] = biological target: Voltage-gated inwardly rectifying potassium channel KCNH2 (Homo sapiens, UniProt Q12809); experiment: Inhibition of human ERG
Rattus norvegicus [27] = species on record: Rattus norvegicus; conditions: in vivo, iv, 1 mg/kg; remark: listed apart in the source
Description: as §1

Rattus norvegicus [28] = species on record: Rattus norvegicus; conditions: in vivo, iv, 1 mg/kg; remark: listed apart in the source

solubility thermodynamic (physchem [1])	solubility thermodynamic (physchem [2])	solubility thermodynamic (physchem [3])	Ki [6]	Compound	other results
1 µg/mL (≈ 2.29 µM)	1 µg/mL (≈ 2.29 µM)	1 µg/mL (≈ 2.29 µM)	11 nM	COc1cnc(Nc2cnc(Cl)c(NS(C)(=O)=O)c2)c(-c2nc(C)nc(N)n2)c1	MRT (in vivo [4]): 1.3 h; F (Rattus norvegicus [5]): 1.8%; microsomal CLint at 0.5 h, 1 µM (in vitro [7]): < 14 µL/min/mg; Vd (in vivo [8]): 0.28 L/kg; AUC (Rattus norvegicus [9]): 419 ng·h/mL; CL (Rattus norvegicus [10]): 0.21 L/h/kg; microsomal CLint at 0.5 h, 1 µM (in vitro [11]): < 14 µL/min/mg
43 µg/mL (≈ 89.4 µM)	33 µg/mL (≈ 68.6 µM)	34 µg/mL (≈ 70.7 µM)	18 nM	COCCOc1cnc(Nc2cnc(Cl)c(NS(C)(=O)=O)c2)c(-c2nc(C)nc(N)n2)c1	IC50 [12]: 32 nM; AUC (in vivo [13]): 1210 ng·h/mL; MRT (in vivo [4]): 1.1 h; clearance (in vivo [14]): 7.67 mL/min/kg; bioavailability (in vivo [15]): 28%; microsomal CLint at 0.5 h, 1 µM (in vitro [7]): < 14 µL/min/mg; Vd (in vivo [8]): 0.52 L/kg; Ki [16]: 6.1 nM; Ki [17]: 14 nM; microsomal CLint at 0.5 h, 1 µM (in vitro [11]): < 14 µL/min/mg; Ki [18]: 16 nM
			43 nM	Cc1nc(N)nc(-c2cccnc2Nc2cnc(Cl)c(NS(=O)(=O)N(C)C(C)C)c2)n1	
11600 µg/mL (≈ 24700 µM)	1000 µg/mL (≈ 2130 µM)	2000 µg/mL (≈ 4250 µM)	7.7 nM	Cc1nc(N)nc(-c2cc(Cl)cnc2Nc2cnc(Cl)c(NS(=O)(=O)N(C)C)c2)n1	fraction unbound [19]: 0.002; fraction unbound [20]: 0.002; AUC (in vivo [13]): 3360 ng·h/mL; Papp (human MDR1): 12.2 ×10⁻⁶ cm/s; fraction unbound [21]: 0.0287; MRT (in vivo [4]): 2.5 h; fraction unbound [22]: 0.0035; Papp (rodent MDR1): 12.2 ×10⁻⁶ cm/s; clearance (in vivo [14]): 6.5 mL/min/kg; bioavailability (in vivo [15]): 63%; inhibition (Mus musculus [23]): Dose-dependent effect; microsomal CLint at 0.5 h, 1 µM (in vitro [7]): 27 µL/min/mg; EC50 (Mus musculus [24]): 0.091 µg/mL (≈ 0.193 µM); IC50 [25]: 606 nM; Vd (in vivo [8]): 0.97 L/kg; inhibition (INH) [26]: Not Active; Ki [16]: 0.4 nM; Ki [17]: 1 nM; microsomal CLint at 0.5 h, 1 µM (in vitro [11]): 47 µL/min/mg; Ki [18]: 0.6 nM
1 µg/mL (≈ 1.97 µM)	5 µg/mL (≈ 9.84 µM)	14 µg/mL (≈ 27.6 µM)	13 nM	COc1cnc(Nc2cnc(Cl)c(NS(=O)(=O)N3CCOCC3)c2)c(-c2nc(C)nc(N)n2)c1	
			16 nM	Cc1nc(N)nc(-c2cccnc2Nc2cnc(Cl)c(NS(=O)(=O)N3CCOCC3)c2)n1	
			311 nM	Cc1nc(N)nc(-c2cc(Cl)cnc2Nc2cnc(Cl)c(N(C)S(C)(=O)=O)c2)n1	
			114 nM	COc1ncc(Nc2ncc(Cl)cc2-c2nc(C)nc(N)n2)cc1NS(C)(=O)=O	
3200 µg/mL (≈ 6220 µM)	3200 µg/mL (≈ 6220 µM)	1000 µg/mL (≈ 1940 µM)	29 nM	COCCN(C)S(=O)(=O)Nc1cc(Nc2ncc(Cl)cc2-c2nc(C)nc(N)n2)cnc1Cl	
			360 nM	Cc1nc(N)nc(-c2cccnc2Nc2cnc(Cl)c(N)c2)n1	
11100 µg/mL (≈ 21700 µM)	1000 µg/mL (≈ 1950 µM)	1000 µg/mL (≈ 1950 µM)	8.6 nM	Cc1nc(N)nc(-c2cc(Cl)cnc2Nc2cnc(Cl)c(NS(=O)(=O)N3CCOCC3)c2)n1	
1000 µg/mL (≈ 2290 µM)	4700 µg/mL (≈ 10800 µM)	3600 µg/mL (≈ 8260 µM)	11 nM	Cc1nc(N)nc(-c2cccnc2Nc2cnc(Cl)c(NS(=O)(=O)N(C)C)c2)n1	
16 µg/mL (≈ 29.9 µM)	200 µg/mL (≈ 374 µM)	11 µg/mL (≈ 20.6 µM)	1.9 nM	Cc1nc(N)nc(-c2cc(CN3CCOCC3)cnc2Nc2cnc(Cl)c(NS(=O)(=O)N(C)C)c2)n1	
1000 µg/mL (≈ 2270 µM)	1000 µg/mL (≈ 2270 µM)	1000 µg/mL (≈ 2270 µM)	3.5 nM	Cc1nc(N)nc(-c2cc(Cl)cnc2Nc2cnc(Cl)c(NS(C)(=O)=O)c2)n1	
3600 µg/mL (≈ 8320 µM)	1000 µg/mL (≈ 2310 µM)	1000 µg/mL (≈ 2310 µM)	11 nM	Cc1nc(N)nc(-c2cccnc2Nc2cnc(Cl)c(NS(=O)(=O)C3CC3)c2)n1	
46200 µg/mL (≈ 114000 µM)	5800 µg/mL (≈ 14300 µM)	2900 µg/mL (≈ 7130 µM)	20 nM	Cc1nc(N)nc(-c2cccnc2Nc2cnc(Cl)c(NS(C)(=O)=O)c2)n1	IC50 [12]: 198 nM; F (Rattus norvegicus [5]): 33%; microsomal CLint at 0.5 h, 1 µM (in vitro [7]): < 14 µL/min/mg; IC50 [25]: 1290 nM; MRT (Rattus norvegicus [27]): 4.5 h; AUC (Rattus norvegicus [9]): 4238 ng·h/mL; CL (Rattus norvegicus [10]): 0.39 L/h/kg; Ki [16]: 1.2 nM; Ki [17]: 2.4 nM; microsomal CLint at 0.5 h, 1 µM (in vitro [11]): < 14 µL/min/mg; Vdss (Rattus norvegicus [28]): 0.4 L/kg; Ki [18]: 4.4 nM
46200 µg/mL (≈ 94900 µM)	5800 µg/mL (≈ 11900 µM)	2900 µg/mL (≈ 5960 µM)	16 nM	Cc1nc(N)nc(-c2cccnc2Nc2cnc(Cl)c(NS(=O)(=O)c3ccc(F)cc3)c2)n1	
			13 nM	Cc1nc(N)nc(-c2cc(Cl)cnc2Nc2cnc(Cl)c(NS(=O)(=O)c3cccnc3)c2)n1	
1 µg/mL (≈ 2.15 µM)	3 µg/mL (≈ 6.44 µM)	4 µg/mL (≈ 8.59 µM)	9.3 nM	COc1cnc(Nc2cnc(Cl)c(NS(=O)(=O)N(C)C)c2)c(-c2nc(C)nc(N)n2)c1	IC50 [12]: 74 nM; AUC (in vivo [13]): 859 ng·h/mL; MRT (in vivo [4]): 2 h; clearance (in vivo [14]): 8.67 mL/min/kg; bioavailability (in vivo [15]): 22%; microsomal CLint at 0.5 h, 1 µM (in vitro [7]): 20 µL/min/mg; Vd (in vivo [8]): 1.01 L/kg; Ki [16]: 1.1 nM; Ki [17]: 2.2 nM; microsomal CLint at 0.5 h, 1 µM (in vitro [11]): 26 µL/min/mg; Ki [18]: 4.7 nM
			161 nM	Cc1nc(N)nc(-c2cc(Cl)cnc2Nc2cnc(C)c(NS(C)(=O)=O)c2)n1	
8 µg/mL (≈ 15.8 µM)	200 µg/mL (≈ 395 µM)	11 µg/mL (≈ 21.7 µM)	9.7 nM	Cc1nc(N)nc(-c2cc(CN3CCOCC3)cnc2Nc2cnc(Cl)c(NS(C)(=O)=O)c2)n1	
